Data published in US20260279694A1, “ELECTROLYTE SOLUTION FOR HYBRID ELECTROLYTIC CAPACITORS AND HYBRID ELECTROLYTIC CAPACITOR” (SANYO CHEMICAL INDUSTRIES, LTD., priority 2023, published 2026).

Test: Measurement of acid dissociation constant (pKa) by titration in methanol
Type: physicochemical
Details: 25° C.; 1 part by weight acid in 99 parts methanol titrated with 0.1 mol/L methanolic potassium hydroxide; pH at half the titrant of first equivalence point
Protocol: At 25° C., 99 parts by weight of methanol was added to 1 part by weight of a carboxylic acid (A), and the contents were shaken and mixed until the carboxylic acid (A) was completely dissolved. A 0.1 mol/L methanolic potassium hydroxide solution was added dropwise to the resulting methanol solution of the carboxylic acid (A) to obtain a titration curve having inflection points, and among the inflection points, an inflection point at which the amount of titrant added was the smallest was defined as an equivalence point. The pH at half the amount of titrant added at the equivalence point on the obtained titration curve was read, and the pH was defined as the acid dissociation constant (pKa) of the carboxylic acid (A).
The pKa of the acid component (A′) was also measured in the same manner as the pKa of the carboxylic acid (A).

pKa | Molecule | Acid dissociation constant (pKa)
3.4 | O=C(O)c1ccc(C(=O)O)o1 [2,5-Furandicarboxylic acid, 2,5-furandicarboxylic acid, reference compound] | –
6.7 | O=C(O)CCCCCCCC(=O)O [Azelaic acid, azelaic acid, reference compound] | –
9.8 | OB(O)O [Boric acid, boric acid, reference compound] | –
– | O=C(O)c1ccccc1C(=O)OCCO [Example A1, phthalic acid ethylene glycol monoester] | 3.8
– | O=C(O)c1cc(C(=O)O)c(C(=O)OCCO)cc1C(=O)O [Example A5, pyromellitic acid ethylene glycol monoester] | 2.6
– | O=C(O)c1c(C(=O)O)c(C(=O)O)c(C(=O)OCCO)c(C(=O)O)c1C(=O)O [Example A7, mellitic acid ethylene glycol monoester] | 1.7
– | CCCCCCCCCCOC(=O)c1ccccc1C(=O)O [Example A10, phthalic acid n-decanol monoester] | 3.9
– | O=C(O)c1ccccc1C(=O)OCCCCCCCCCCO [Example A11, phthalic acid 1,10-decanediol monoester] | 4.0
2.8 | O=C(O)c1cc(C(=O)O)c(C(=O)O)cc1C(=O)O [Pyromellitic acid, pyromellitic acid, reference compound] | –
3.5 | O=C(O)c1ccc(C(=O)O)c(C(=O)O)c1 [Trimellitic acid, trimellitic acid, reference compound] | –
– | pyromellitic acid polyethylene glycol monoester [Example A6] | 2.9
– | trimellitic acid polyethylene glycol monoester [Example A4] | 3.6

Molecule | pKa | Acid dissociation constant (pKa)
O=C(O)c1ccccc1C(=O)O [Phthalic acid, phthalic acid, reference compound] | 3.9 | –
